Laboratory results taken from patent US12239654B2, “Compounds and methods for treating neurological and cardiovascular conditions” (Astrocyte Pharmaceuticals, Inc., priority 2016, dated 2025).

Legend:
[1] = LC-MS/MS metabolite scouting of MRS2365 in plasma and whole blood; assay type: in vitro ADME; settings: EDTA-treated mouse and human whole blood
Method: Plasma Stability Determination: MRS2365, enalapril and procaine were solubilized in phosphate-buffered saline, pH 7.4. […] Stability incubations were initiated with the addition of MRS2365 (1 μM final concentration). Initial assessments of stability in EDTA-generated plasma utilized incubation timepoints of 0, 10, 30, 60, 120 and 240 minutes (FIGS. 3 and 4). Subsequent studies comparing EDTA- and heparin-generated plasma utilized incubation timepoints of 0, 1, 2.5, 5, 7.5, 10 and 30 minutes (FIG. 7). Additional plasma stability incubations comparing EDTA- and heparin-generated plasma were performed using timepoints of 0, 5, 10, 20, 30, 45, 60 and 90 seconds (FIG. 8). […]
Plasma and blood samples were also qualitatively analyzed for MRS2365 metabolites utilizing a LC-MS/MS-based “metabolite scouting” protocol. […] Blood and plasma samples were analyzed by both positive- and negative-ion LC/MS-MS for parent compound and metabolites as it was anticipated that the phosphorylated compounds would preferentially generate negative ions while the riboside MRS4322 would preferentially generate positive ions. In positive-ion mode, extracted ion chromatograms monitored masses in the range of 323.7-324.7 and 403.7-404.7 to scout for MRS4322 and MRS2347, respectively. Any ion peaks in these ranges were further analyzed to generate product ion spectra for these ion chromatogram peaks. […]

[2] = In vitro stability of MRS2365 in human plasma; assay type: in vitro ADME
Method: (§1) Whole blood was obtained from male CD-1 mice and human volunteers at Seventh Wave Laboratories (Maryland Heights, MO). Plasma and blood samples were prepared using either EDTA (1 mM) or lithium heparin as anticoagulants.
(§2) Plasma Stability Determination: MRS2365, enalapril and procaine were solubilized in phosphate-buffered saline, pH 7.4. […] Stability incubations were initiated with the addition of MRS2365 (1 μM final concentration). Initial assessments of stability in EDTA-generated plasma utilized incubation timepoints of 0, 10, 30, 60, 120 and 240 minutes (FIGS. 3 and 4). Subsequent studies comparing EDTA- and heparin-generated plasma utilized incubation timepoints of 0, 1, 2.5, 5, 7.5, 10 and 30 minutes (FIG. 7). Additional plasma stability incubations comparing EDTA- and heparin-generated plasma were performed using timepoints of 0, 5, 10, 20, 30, 45, 60 and 90 seconds (FIG. 8). For metabolite scouting analyses, MRS2365 was incubated in heparinized human plasma at a concentration of 100 μM for 10 or 30 minutes (FIG. 9). In all studies, plasma was immediately placed in microtainer tubes, frozen on dry ice and stored at −80° C. until analysis.
(§3) The following table outlines the LC and MS/MS conditions employed (Table 11).
(§4) The calibration range for MRS2365 plasma and blood concentration standard curves was 5-5000 ng/mL. […]

[3] = In vitro stability of MRS2365 in mouse whole blood; assay type: in vitro ADME; settings: male, CD-1, EDTA-treated mouse whole blood
Method: as §1
(§5) Blood Stability Determination: MRS2365, enalapril and procaine were solubilized in phosphate-buffered saline, pH 7.4. […] Stability incubations were initiated with the addition of MRS2365 (1 μM final concentration) (FIGS. 5 and 6). Blood sample aliquots were obtained at 0, 1, 2.5, 7.5, 10 and 30 minutes and placed in microtainer tubes. For metabolite scouting analyses, MRS2365 was incubated in heparinized human whole blood at a concentration of 100 μM for 10 or 30 minutes (FIG. 10). In all studies, plasma was immediately prepared by centrifugation at 4° C., placed in microtainer tubes, frozen on dry ice and stored at −80° C. until analysis.
as §3
(§6) The calibration range for MRS2365 plasma and blood concentration standard curves was 5-5000 ng/mL. Quality control samples were utilized at concentrations of 32, 160, 800 and 4000 ng/mL.

[4] = Previous/initial in vivo pharmacokinetic assessments of MRS2365 in mice
[5] = In vitro stability of MRS2365 in human whole blood; assay type: in vitro ADME; settings: EDTA-treated human whole blood, read-out: estimated half-life
Method: as §1, §5, §3, §6

[6] = In vitro stability of MRS2365 in mouse plasma; assay type: in vitro ADME
Method: as §1, §2, §3, §4

[7] = Plasma binding determination by plasma ultrafiltration, neonatal pig; assay type: in vitro ADME; settings: female, 37° C., read-out: % Bound Mean (converted)
Method: Plasma ultrafiltrate blank samples were prepared by thawing frozen plasma and then pre-warming plasma in a humidified 5% CO2 chamber at 37 C for 60 minutes. Aliquots of 800 ul were transferred to Centrifree Centrifugal Filters (Ultracel regenerated cellulose (NMWL 30,000 amu) Lot R5JA31736) and centrifuged at 2900 RPM at 37 C for 10 minutes; plasma water filtrates were collected and used in preparation of standards, blanks and QC standards.
Plasma Binding Determination. […] Plasma samples were pre-warmed for 60 minutes in a humidified, 5% CO2 incubator maintained at 37° C. […] Spiked plasma samples were incubated on a rotary mixer in a humidified 5% CO2 chamber at 37° C. for a minimum of 60 minutes. After 60 minutes, three 800 ul aliquots of each sample were added to Centrifree centrifugal filters. The filters were subjected to centrifugation at 2900 rpm for 10 minutes at 37° C. Three 100 ul aliquots of residual plasma were collected along with ultrafiltrate for bioanalysis.
(§7) For each tissue matrix, standard curves were created and LLOQ/ULOQ concentrations determined.

[8] = target: T1, mouse A3 adenosine receptor (Mus musculus, UniProt Q61618); test: cAMP accumulation at mouse A3 receptors expressed in CHO cells; assay type: cell-based
T1 construct: expressed in transfected cells; whole cells for cAMP
T1 sequence (Q61618 1-319): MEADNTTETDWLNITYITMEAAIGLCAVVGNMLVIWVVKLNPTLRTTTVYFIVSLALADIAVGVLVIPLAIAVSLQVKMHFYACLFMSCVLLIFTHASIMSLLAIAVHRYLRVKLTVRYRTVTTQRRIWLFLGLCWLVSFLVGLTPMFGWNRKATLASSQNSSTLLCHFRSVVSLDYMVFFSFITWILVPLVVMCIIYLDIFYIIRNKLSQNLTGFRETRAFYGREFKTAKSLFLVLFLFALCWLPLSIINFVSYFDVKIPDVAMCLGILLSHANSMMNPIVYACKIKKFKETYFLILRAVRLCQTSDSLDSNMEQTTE
Method: Additionally cAMP experiments were conducted at CHO cells recombinantly expressing human A3 or mouse A3 adenosine receptors, respectively.

[9] = Brain binding determination by brain homogenate ultrafiltration, neonatal pig; assay type: in vitro ADME; settings: female, pH 7.4, 37° C., read-out: % Bound Mean (converted)
Method: Animals and Tissue Preparation. Plasma and brain samples from female neonatal pigs were obtained from the University of Pennsylvania and stored at −80° C. until use.
Brains were weighed and homogenized with 1:9 phosphate-buffered saline, pH 7.4 using an Omni tissue homogenizer.
Pooled homogenized brains were pre-warmed for 60 minutes in a humidified, 5% CO2 incubator maintained at 37° C. […] Spiked pooled brain homogenates were placed on a Nutator mixer in a humidified, 5% CO2 incubator at 37° C. for 60 minutes. After 60 minutes, three 800 ul aliquots of each sample were added to Centrifree centrifugal filters. The filters were subjected to centrifugation at 2900 rpm for 10 minutes at 37 C. Aliquots of residual brain homogenate and ultrafiltrate were collected for bioanalysis.
as §7

Row | SMILES | metabolites detected [1] | half-life at 1 μM ([2]; EDTA-prepared human plasma, 1 μM, incubation out to 240 minutes) [h] | MRS2365 concentrations in heparin-treated plasma ([2]; heparin-treated human plasma, 0-90 seconds, even at 0 and 5 seconds) | half-life at 1 μM [3] [h] | circulating and brain concentrations of MRS2365 ([4]; following intraperitoneal or intravenous administration, previous studies) | clearance in vivo ([4]; mice, heparin as blood anticoagulant for plasma preparation) | half-life at 1 μM [5] [h] | MRS2365 concentrations in heparin-treated plasma ([6]; heparin-treated mouse plasma, 0-90 seconds, even at 0 and 5 seconds) | half-life at 1 μM ([6]; male, CD-1, EDTA-prepared mouse plasma, 1 μM, incubation out to 240 minutes) [h] | fraction unbound at 60 min, 1 uM [7] | EC50 ([8]; CHO cells stably expressing mouse A3R, read-out: EC50 ± SEM, Mouse A3R, cAMP accumulation) [nM] | Emax at 100 µM ([8]; read-out: efficacy at 100 μM concentration in % relative to maximal effect of NECA, Mouse A3R, 100 μM, cAMP accumulation, CHO cells) [%] | fraction unbound at 60 min, 1 uM [9]
1 | CSc1nc(N)c2ncn([C@H]3[C@H](O)[C@H](O)[C@]4(COP(=O)(O)OP(=O)(O)O)C[C@H]34)c2n1 [MRS2365] | No metabolites were detected | > 4 | extremely low | 0.783 | no detectable | rapidly cleared at a rate approximating cardiac output | > 4 | extremely low | > 4 | – | – | – | –
2 | CSc1nc(N)c2ncn([C@H]3[C@H](O)[C@H](O)[C@]4(CO)C[C@H]34)c2n1 [MRS4322] | – | – | – | – | – | – | – | – | – | 0.784 | 759 ± 170 | 72 | 0.253
